Test results from US9693982B2, “Composition for amelioration of hypoalbuminemia” (OTSUKA PHARMACEUTICAL FACTORY, INC., priority 2010, dated 2017).

Test system: albumin mRNA
Experiment: Albumin mRNA expression of cultured human hepatocytes (Experiment 1, real time RT-PCR)
Assay type: cell-based
Conditions: for Expression level of albumin mRNA (mean ± SD): 24 hours after addition, ratio based on HPRT1 mRNA (regarded as 1), human hepatocytes Lot 100, triplicate; for Effect on albumin mRNA expression level (in words): human hepatocytes, 20 mM, 60 mM
Description: In this test, human primary cultured hepatocytes were cultured by each test solution to check a change of albumin mRNA expressional potency and a change of secretion level of albumin. The test was performed as follows.
Albumin mRNA and HPRT1 mRNA were measured. The nucleotide sequences of albumin and HPRT1 are registered in the GenBank as follows and each nucleotide sequence follows the sequence registered.
Note that, HPRT1, which is a house keeping gene serving as a control, was measured in the same test. The sequences of primers and probes used in measurement of albumin are made public in Nishimura, M., Yoshitsugu, H., Yokoi, T., Tateno, C., Kataoka, M., Horie, T., Yoshizato, K. and Naito, S.: Evaluation of mRNA expression of human drug-metabolizing enzymes and transporters in chimeric mouse with humanized liver. Xenobiotica, 35: 877-890 (2005). Furthermore, the sequences of primers and probes used in measurement of HPRT1 are made public in Nishimura, M., Naito, S. and Yokoi, T.: Tissue-specific mRNA expression profiles of human nuclear receptor subfamilies. Drug Metab. Pharmacokinet., 19: 135-149 (2004).
Furthermore, mRNA was quantified by use of the primer pairs and probe represented by individual sequences (the position of initiation codon follows the each nucleotide sequence registered) shown in the following Table 1 and in accordance with RT-PCR (Real-time quantitative reverse transcription-polymerase reaction). Each of the primers and probe was prepared by an automatic DNA synthesizer.
As the test solution of the Livact composition, a Livact composition was dissolved such that the concentrations of Ile, Leu, and Val became 13.8 mM, 27.7 mM, and 18.5 mM, respectively after blending (60 mM as the concentration of the Livact composition test solution). Note that, in the dissolution procedure, a Livact composition was dissolved in Buffer A and then a medium was added in an amount 1/10 as low as that of Buffer A.
As an Ile, Leu or Val solution, Ile, Leu or Val was dissolved so as to have a concentration of 60 mM. Note that, in the dissolution procedure, Ile, Leu or Val was dissolved in Buffer A and then a medium was added in an amount 1/10 as low as that of Buffer A.
The Livact composition test solution prepared in Section (2-3) and Ile, Leu or Val solution prepared in Section (2-4) were diluted 3 fold with Buffer B to prepare a 20 mM solution.
According to a method of Nishimura et al. (Nishimura, M., Yoshitsugu, H., Naito, S. and Hiraoka, I.: Evaluation of gene induction of drug-metabolizing enzymes and transporters in primary culture of human hepatocytes using high-sensitivity real-time reverse transcription PCR. Yakugaku Zasshi, 122: 339-361 (2002)), 1×10^5 cells/400 μL was dispensed in each well of a 24 well plate and cultured in a CO2 incubator. After 3 hours, medium exchange was performed. Further after 21 hours (24 hours after inoculation), medium exchange was performed. Thereafter, the medium was exchanged every 24 hours. Note that, the amount of liquid medium to be exchanged was set at 400 μL/well. Furthermore, exchange to each test solution was performed at the after 48 hours at which medium exchange was performed.
After human hepatocytes (1×10^5 viable cells/0.4 mL/well) were inoculated, medium exchange was performed 3 hours and 24 hours after inoculation. Note that, the viability at the inoculating time was 90.4% (Lot 100). Then, 48 hours after inoculation, a test substance was added and 24 hours after addition of the test substance was initiated, Total RNA was extracted (using Rneasy Mini Kit). Quantification of mRNA of albumin and HPRT1 was performed by real time RT-PCR. Note that, HPRT1, which is a house keeping gene, was used as an internal standard.
After the medium was suctioned, Total RNA was extracted by use of QIA shredder and Rneasy Mini Kit. Now, a preparation method using the Kit will be described below. […]

Row | SMILES | Expression level of albumin mRNA (mean ± SD) (20 mM total test substance) | Expression level of albumin mRNA (mean ± SD) (60 mM total test substance) | Effect on albumin mRNA expression level (in words)
1 | CC[C@H](C)[C@H](N)C(=O)O [Ile, Isoleucine] | 174 ± 33 | 222 ± 27 | increases in an additive manner
2 | CC(C)C[C@H](N)C(=O)O [Leu, Leucine] | 215 ± 63 | 255 ± 53 | increases in an additive manner
3 | CC(C)[C@H](N)C(=O)O [Val, Valine, reference compound] | 127 ± 17 | 118 ± 10 | –
